Entries after “also recorded” stand apart in the source; their conditions may differ.

From US20160287602A1, “METHODS FOR PROMOTING MOTOR NEURON SURVIVAL” (PRESIDENT AND FELLOWS OF HARVARD COLLEGE, priority 2013, published 2016) come the findings set out here.

For test [1], the system named is SOD1^G93A (SOD1^G93A/Hb9::GFP) mouse ESC derived MNs. Nature of the test: MN survival after trophic factor withdrawal, mixed culture. Format: cell-based. The source says:
(§1) In the present study, we have screened highly specific small molecule kinase inhibitors to identify those which could promote MN survival. For the screen, we generated MNs from wild-type (Hb9::GFP) and SOD1^G93A (SOD1^G93A/Hb9::GFP) mouse ESCs using published protocols (Di Giorgio et al., 2007). We withdrew trophic factors as a standard method to induce MN death. Cell plating density as well as timing for initiation and duration of trophic factor withdrawal were used exactly as published to achieve ˜80% MN death in 3 days (FIG. 1A) (Yang et al., 2013). […] We continued to work with this compound class as it reproducibly promoted survival of both MNs types and the effect was robust. We further reasoned that since this compound class promoted survival of both MN types, the probability of its working in other contexts such as on human MNs and in the ALS mouse model was maximum.
High expression of Aurora kinases is associated with various types of cancer (Sen et al., 1997; Reichardt et al., 2003; Tchatchou et al., 2007) and there are many AKIs including VX-680 and ZM447439 that are in clinical trials for anti-cancer drug development.
(§2) Trophic factors were removed and ZM447439 was added to the cultures as previously and MN survival was analyzed on day 7, 14 & 21.

In test [2] the test system is wild-type (Hb9::GFP) mouse ESC derived MNs. Described as above. It is filed as cell-based.
From the text: as §1, with “maximum. […]” for “maximum.”
as §2

Test [3] concerns human ESC derived MNs on SOD1^G93A astrocytes. Briefly: Human ESC derived MNs co-cultured with astrocytes. It is filed as cell-based. An excerpt: (§3) We generated MNs from a human ESC line expressing an HB9::GFP transgene [HuES-3/Hb9::GFP (Di Giorgio et al., 2008)]. Human ESC derived MN cultures were pre-treated with AraC to eliminate progenitor cells. We induced MN death by again withdrawing trophic factors. […] We also investigated the toxic effect of SOD1^G93A astrocytes on human ESC derived MN survival. We found significant death of human MNs cultured on mutant astrocytes.

The subject of test [4] is wild-type (Hb9::GFP) mouse ESC derived MNs. Nature of the test: MN survival after trophic factor withdrawal, mixed culture. It is filed as cell-based. The settings on record: in presence of neurotrophic factors; day 7, 14 & 21.
Test [5] concerns SOD1^G93A/Hb9::GFP MNs. Nature of the test: Number of synapses per MN (synapsin/PSD-95 co-localization, automated imager). Format: cell-based, mouse. An excerpt:
(§4) To examine whether MNs kept alive by AKIs maintain morphological integrity we carried out a series of analyses on surviving MNs in the absence of trophic factors. […] We also used an automated imager to analyze the number of synapses per MN by counting co-localized regions positive for the presynaptic marker synapsin and the postsynaptic marker PSD-95.

Test [6] relates to Hb9::GFP MNs. The test is described as above. Format: cell-based, mouse.
From the text: as §4

Test [7] has as its system human iPSC derived MNs (healthy control, SOD1, TDP-43, C90RF72). Briefly: Human iPSC derived MN survival. It is filed as cell-based. The source says:
We produced MNs from human iPSCs lines including a healthy control, two ALS patients expressing confirmed mutations in SOD1 (Boulting et al., 2011), two with mutations in TDP-43 and one in C90RF72. We treated these cultures with AraC to minimize the number of proliferating progenitors. […] We also examined the effect of SOD 1^G93A astrocytes co-culture on iPSC derived MNs. We found no toxic effect on survival in any of the patient iPSC derived MNs, but we did observe decreased MN survival in the control iPSC derived MNs. […] We also looked at the effect of AKIs on morphology and synapse formation. […] In addition, by immunoblot we observed that ZM447439 enhanced synaptic protein, synaptophysin, expression in both the presence and absence of trophic factors.

Test [8] concerns phosphorylated BAD (pBAD). Nature of the test: Phosphorylated BAD immunostaining in surviving MNs. Format: cell-based, mouse. The settings on record: absence of TFs.
The test system of test [9] is FACS purified Hb9::GFP MNs. Nature of the test: MN survival after trophic factor withdrawal, FACS purified MN culture. Format: cell-based, mouse. The following applies: FACS purified MN cultures, trophic factors withdrawn, FIG. 1C. The source says:
ESC-derived MN culture achieves ˜30%-50% MN differentiation efficiency and is therefore highly heterogeneous. To examine whether AKIs specifically act in a cell-autonomous or non-cell-autonomous manner, we established a highly enriched MN culture through FACS purification based on Hb9::GFP reporter expression. […] Next, we asked whether AKIs exert their survival promoting effect only cell-autonomously or whether they also function non-cell-autonomously to rescue MN death. To address this question we produced astrocyte conditioned medium (ACM) by incubating primary murine astrocytes with AKIs (VX-680 and ZM447439). The ACM was then dialyzed using a dialyzer with pore size appropriate for eliminating residual AKIs.

The test system of test [10] is HuES-3/Hb9::GFP human ESC derived MNs. Briefly: Human ESC derived MN survival after trophic factor withdrawal. It is filed as cell-based. The settings on record: trophic factors withdrawn.
From the text: as §3

As for `COc1cc2c(Nc3ccc(NC(=O)c4ccccc4)cc3)ncnc2cc1OCCCN1CCOCC1` [ZM447439, N-[4-[[6-Methoxy-7-[3-(4-morpholinyl)propoxy]-4-quinazolinyl]amino]phenyl]benzamide], the “basal MN death” value is listed as “prevented” in test [1] (in presence of neurotrophic factors, day 7, 14 & 21) and “prevented” in test [4]. Moreover, the “survival of MNs (number of surviving MNs)” value in test [1] (trophic factor withdrawal, 3 days, SOD1^G93A/Hb9::GFP MNs) was “consistently increased the survival of MNs; also recorded: most potent and robust at increasing survival”; in test [2] (trophic factor withdrawal, 3 days, wild-type Hb9::GFP MNs) it was “consistently increased the survival of MNs; also recorded: most potent and robust at increasing survival”. In addition, the “long term MN survival” value is “increased survival” in [1] (trophic factors removed, day 7, 14 & 21, SOD1^G93A/Hb9::GFP MNs) and “increased survival” in test [2] (trophic factors removed, day 7, 14 & 21, Hb9::GFP MNs). The “survival effect in dose dependent assay, comparison among AKIs” value in [2] (mixed MN culture, FIG. 1B) is “most effective and potent in promoting MN survival; also recorded: most effective and potent of all AKIs assayed”. Moreover, in test [3] (SOD1^G93A astrocytes co-culture), the “death of human MNs cultured on mutant astrocytes” value is listed as “completely rescued; also recorded: decreases the toxic effect”. Moreover, the “size of human MN” value in test [3] (co-cultured with both wild-type and mutant astrocytes) was “significantly increased”. For the same compound, the “number of synapses per MN” value in [5] (absence of trophic factors, SOD1^G93A/Hb9::GFP MNs) was “preserved the number of synapses”; in [5] (neurotrophin containing medium) it was “increased the number of synapses per MN”; in [6] (absence of trophic factors, Hb9::GFP MNs), “preserved the number of synapses”; in test [6] (neurotrophin containing medium), “increased the number of synapses per MN”. Besides, the MN survival entry in test [7] (all human iPSC derived MN cultures, AraC treated) is “substantially increase MN survival”; in [9] it was “rescued MN survival in a dose dependent fashion”. Besides, the “MN survival, comparison of VX-680 and ZM447439” value in test [7] (human iPSC derived MN cultures) is “more effective and potent in rescuing human MN death”. Further, in test [8], the “levels of phosphorylated BAD (pBAD)” value is given as “increased levels”. Also, the “human MN survival, comparison of VX-680 and ZM447439” value in test [10] (FIG. 7A) was “more effective and potent in preventing MN death”. In addition, the “human MN survival” value in test [10] (AraC pre-treated cultures) is “rescued human MN death”.
